Measurements from US10508120B2, “TYK2 inhibitors and uses thereof” (Nimbus Lakshmi, Inc., priority 2017, dated 2019).
pKd: −log10 of the molar value. Like-named read-outs stand apart in the source and are kept apart here.

What was measured:
[1] = target: human TYK2 (JH2domain-pseudokinase) (Homo sapiens (Human), UniProt P29597); assay: TYK2 JH2 Domain Binding Assay (KINOMEscan)
Method in brief: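 The construct was human TYK2 G556–D888 fused to the NFkB DNA-binding domain and expressed in HEK293 cells; unpurified extract was incubated with compound and liganded beads for 1 hour at room temperature.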

Tyk2 kinase domain (DH1) = Tyk2 kinase domain (DH1) (Homo sapiens (Human), UniProt P29597); assay: Tyk2 Radioactive Kinase Assay; assay type: biochemical; conditions: for inhibition at 10 µM: read-out: Tyk2 JH1% Inhibition @ 10 μM
Chain of Tyk2 kinase domain (DH1) (P29597 897-1176): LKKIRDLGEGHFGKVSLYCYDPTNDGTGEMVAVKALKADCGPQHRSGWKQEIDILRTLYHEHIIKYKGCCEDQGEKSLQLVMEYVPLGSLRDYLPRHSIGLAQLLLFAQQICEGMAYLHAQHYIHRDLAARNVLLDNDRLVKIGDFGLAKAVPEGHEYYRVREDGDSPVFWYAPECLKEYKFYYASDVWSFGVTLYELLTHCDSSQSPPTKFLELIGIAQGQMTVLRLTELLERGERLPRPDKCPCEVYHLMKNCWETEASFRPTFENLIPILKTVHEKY
Method in brief: (§1)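 Each kinase domain is incubated with test compound at 10 μM. Activity is then measured radiometrically and expressed as percent inhibition relative to uninhibited enzyme.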

JAK2 kinase domain (JH1) = JAK2 kinase domain (JH1) (Homo sapiens (Human), UniProt O60674); assay: JAK2 Radioactive Kinase Assay; assay type: biochemical; conditions: for inhibition at 10 µM: read-out: JAK2 JH1% Inhibition @ 10 μM
Chain of JAK2 kinase domain (JH1) (O60674 849-1124): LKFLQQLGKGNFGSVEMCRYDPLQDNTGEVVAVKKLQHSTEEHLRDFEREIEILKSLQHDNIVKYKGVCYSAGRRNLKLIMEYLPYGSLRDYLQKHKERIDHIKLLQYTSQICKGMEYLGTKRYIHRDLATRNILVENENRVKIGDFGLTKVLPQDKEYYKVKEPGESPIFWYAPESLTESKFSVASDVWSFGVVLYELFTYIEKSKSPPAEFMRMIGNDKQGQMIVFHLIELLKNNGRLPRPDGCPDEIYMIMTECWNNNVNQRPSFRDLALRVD
Method in brief: as §1

Chain of human TYK2 (JH2domain-pseudokinase) (P29597 556-888): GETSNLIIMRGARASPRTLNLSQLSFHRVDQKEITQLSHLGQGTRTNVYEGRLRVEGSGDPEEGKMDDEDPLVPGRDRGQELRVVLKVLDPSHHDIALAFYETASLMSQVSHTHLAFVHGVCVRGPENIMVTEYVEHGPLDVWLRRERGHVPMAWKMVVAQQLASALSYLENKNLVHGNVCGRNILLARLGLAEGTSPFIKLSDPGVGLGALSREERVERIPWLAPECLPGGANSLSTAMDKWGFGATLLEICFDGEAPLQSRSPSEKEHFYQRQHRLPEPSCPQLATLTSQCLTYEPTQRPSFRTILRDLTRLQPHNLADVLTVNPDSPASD

SMILES | pKd [1] | inhibition at 10 µM (Tyk2 kinase domain (DH1); compound at 10 μM, ATP 10 μM) | inhibition at 10 µM (JAK2 kinase domain (JH1); compound at 10 μM, ATP 10 μM) | further results
CNc1cc(Nc2cccc([C@H]3CCCOC3)n2)nc2c(C(=O)N[C@H]3COC[C@H]3O)cnn12 [I-692] | > 9.70 | < 50% | < 50% | 
CNc1cc(Nc2cccn([C@H]3CC[C@H](OC)CC3)c2=O)nc2c(C(=O)N[C@H]3COC[C@H]3O)cnn12 [I-832] | 8.00 to 9.00 |  |  | inhibition at 10 µM (Tyk2 kinase domain (DH1); 10 μM compound, 10 μM ATP): < 50%; inhibition at 10 µM (JAK2 kinase domain (JH1); 10 μM compound, 10 μM ATP): < 50%
CNc1cc(Nc2cnn(C)c2)nc2c(C(N)=O)cnn12 [I-11] | 8.00 to 9.00 | < 50% | < 50% | 
CNc1cc(Nc2cccn(-c3cccnc3C)c2=O)nc2c(C(=O)NCC(C)(C)CO)cnn12 [I-850] | 8.00 to 9.00 |  |  | inhibition at 10 µM (Tyk2 kinase domain (DH1); 10 μM compound, 10 μM ATP): < 50%; inhibition at 10 µM (JAK2 kinase domain (JH1); 10 μM compound, 10 μM ATP): < 50%
CNc1cc(Nc2cccn([C@@H]3CCN(CCC#N)C3)c2=O)nc2c(C(=O)N[C@@H]3C[C@@H]3F)cnn12 [I-987] | > 9.70 |  |  | inhibition at 10 µM (Tyk2 kinase domain (DH1); 10 μM compound, 10 μM ATP): < 50%; inhibition at 10 µM (JAK2 kinase domain (JH1); 10 μM compound, 10 μM ATP): < 50%
CNc1cc(Nc2cccn(-c3cnco3)c2=O)nc2c(C(=O)N[C@H]3CC[C@H]3O)cnn12 [I-809] | 9.00 to 9.70 |  |  | Tyk2 JH1% Inhibition @ 10 μM (Tyk2 kinase domain (DH1); 10 μM compound, 10 μM ATP): A (percent inhibition at 10 μM lower than 50); JAK2 JH1% Inhibition @ 10 μM (JAK2 kinase domain (JH1); 10 μM compound, 10 μM ATP): A (percent inhibition at 10 μM lower than 50)
CNc1cc(-c2cn(CCN3CCOCC3)c3ncccc23)nc2c(C(=O)N[C@H]3CC[C@H]3O)cnn12 [I-778] | > 9.70 | < 50% | < 50% | 
NC(=O)c1cnn2c(N)cc(Nc3cccc(N4CCCC4)c3Cl)nc12 [I-23] | 8.00 to 9.00 | < 50% | 70 to 90% | 
CNc1cc(-c2cn(CCN3CCCCC3)c3ncccc23)nc2c(C(=O)N[C@@H]3CC[C@@H]3O)cnn12 [I-793] | > 9.70 | < 50% | < 50% | 
CNc1cc(Nc2cccn(-c3cnn(C[C@H]4CCOC4)c3)c2=O)nc2c(C(=O)NC3CC3)cnn12 [I-601] | > 9.70 | < 50% | < 50% | 
CNc1cc(Nc2cccnc2C(C)(C)O)nc2c(C(=O)NC3CC3)cnn12 [I-306] | 8.00 to 9.00 | < 50% | < 50% | 
CNc1cc(Nc2cccc(N3CC4(CCO4)C3)n2)nc2c(C(=O)N[C@H]3CC[C@H]3O)cnn12 [I-758] | 9.00 to 9.70 | < 50% | < 50% | 
CNc1cc(Nc2cccn([C@@H]3C[C@H]3F)c2=O)nc2c(C(=O)NCC3(CO)CC3)cnn12 [I-1122, 5-((1-((1R,2R)-2-fluorocyclopropyl)-2-oxo-1,2-dihydropyridin-3-yl)amino)-N-((1-(hydroxymethyl)cyclopropyl)methyl)-7-(methylamino)pyrazolo[1,5-a]pyrimidine-3-carboxamide] | 9.00 to 9.70 |  |  | inhibition at 10 µM (Tyk2 kinase domain (DH1); 10 μM compound, 10 μM ATP): < 50%; inhibition at 10 µM (JAK2 kinase domain (JH1); 10 μM compound, 10 μM ATP): < 50%
CNc1cc(-c2nn(CCN3CCN(C)CC3)c3ncccc23)nc2c(C(=O)NC3CC3)cnn12 [I-479] | 8.00 to 9.00 | < 50% | < 50% | 
CNc1cc(-n2cc(N3CCOCC3)c3ncccc32)nc2c(C(=O)NC3CC3)cnn12 [I-554] | 8.00 to 9.00 | < 50% | < 50% | 
CNc1cc(Nc2cccc([C@H]3CCCOC3)n2)nc2c(C(=O)N[C@H]3CC[C@H]3O)cnn12 [I-642] | > 9.70 | < 50% | < 50% | 
CNc1cc(Nc2cccn([C@H]3CCCOC3)c2=O)nc2c(C(=O)N[C@@H]3C[C@@H]3F)cnn12 [I-475] | > 9.70 | < 50% | < 50% | 
CNc1cc(Nc2cccn(-c3nccs3)c2=O)nc2c(C(=O)NC3CCC3)cnn12 [I-242] | > 9.70 | < 50% | < 50% | 
CNc1cc(Nc2cccn([C@H]3CCOC[C@H]3OC)c2=O)nc2c(C(=O)NC3CC3)cnn12 [I-595] | 8.00 to 9.00 | < 50% | < 50% | 

SMILES | pKd [1] | inhibition at 10 µM (Tyk2 kinase domain (DH1); compound at 10 μM, ATP 10 μM) | inhibition at 10 µM (JAK2 kinase domain (JH1); compound at 10 μM, ATP 10 μM) | further results
CNc1cc(Nc2cccnc2OC)nc2c(C(=O)N[C@H]3CCC[C@H](O)C3)cnn12 [I-496] | > 9.70 | < 50% | < 50% | 
CNc1cc(Nc2cccn(-c3cncc(F)c3)c2=O)nc2c(C(=O)NC3CC3)cnn12 [I-967] | > 9.70 |  |  | inhibition at 10 µM (Tyk2 kinase domain (DH1); 10 μM compound, 10 μM ATP): < 50%; inhibition at 10 µM (JAK2 kinase domain (JH1); 10 μM compound, 10 μM ATP): < 50%
CNc1cc(Nc2ccnn(-c3ccc(F)cc3)c2=O)nc2c(C(N)=O)cnn12 [I-69] | 9.00 to 9.70 | < 50% | < 50% | 
CNc1cc(Nc2cccn(-c3cc(C)on3)c2=O)nc2c(C(N)=O)cnn12 [I-46] | > 9.70 | < 50% | < 50% | 
CNc1cc(Nc2cccc3ocnc23)nc2c(C(=O)N[C@H]3CC[C@@H]3OC)cnn12 [I-1115] | 8.00 to 9.00 |  |  | inhibition at 10 µM (Tyk2 kinase domain (DH1); 10 μM compound, 10 μM ATP): < 50%; inhibition at 10 µM (JAK2 kinase domain (JH1); 10 μM compound, 10 μM ATP): < 50%
CNc1cc(Nc2cccn([C@H]3CCN(C)CC3(F)F)c2=O)nc2c(C(=O)NC3CC3)cnn12 [I-823] | 9.00 to 9.70 |  |  | inhibition at 10 µM (Tyk2 kinase domain (DH1); 10 μM compound, 10 μM ATP): < 50%; inhibition at 10 µM (JAK2 kinase domain (JH1); 10 μM compound, 10 μM ATP): < 50%
CNc1cc(Nc2cc(C)nc(N3CC[C@@H](OC)C3)c2)nc2c(C(N)=O)cnn12 [I-29] | 8.00 to 9.00 | < 50% | < 50% | 
CNc1cc(Nc2cccn([C@H]3CC[C@H](O)CC3)c2=O)nc2c(C(=O)N[C@H]3C[C@H]3F)cnn12 [I-166] | > 9.70 | < 50% | < 50% | 
CNc1cc(Nc2cccn(-c3ccccn3)c2=O)nc2c(C(=O)N[C@H]3CC[C@@H]3O)cnn12 [I-705] | > 9.70 | < 50% | < 50% | 
CNc1cc(Nc2cccn(C3CCN(C)CC3)c2=O)nc2c(C(=O)N[C@H]3C[C@H]3F)cnn12 [I-349] | > 9.70 | < 50% | < 50% | 
CNc1cc(Nc2cccn(-c3cnn(C)c3F)c2=O)nc2c(C(=O)N[C@H]3C[C@H]3F)cnn12 [I-719] | > 9.70 | < 50% | < 50% | 
CNc1cc(-c2cn(C(C)C)c3ncccc23)nc2c(C(=O)N[C@H]3COC[C@H]3O)cnn12 [I-841, N-((3S,4S)-4-hydroxytetrahydrofuran-3-yl)-5-(1-isopropyl-1H-pyrrolo[2,3-b]pyridin-3-yl)-7-(methylamino)pyrazolo[1,5-a]pyrimidine-3-carboxamide] | 8.00 to 9.00 |  |  | inhibition at 10 µM (Tyk2 kinase domain (DH1); 10 μM compound, 10 μM ATP): < 50%; inhibition at 10 µM (JAK2 kinase domain (JH1); 10 μM compound, 10 μM ATP): < 50%
CNc1cc(Nc2cccnc2C(C)(F)F)nc2c(C(=O)NCC(C)(C)CO)cnn12 [I-355] | 9.00 to 9.70 | < 50% | < 50% | 
CNc1cc(Nc2cccn([C@H]3CC[C@@H](OC)CC3)c2=O)nc2c(C(=O)NC3CC3)cnn12 [I-356] | > 9.70 | < 50% | < 50% | 
CNc1cc(Nc2cccn([C@H]3CCCOC3)c2=O)nc2c(C(=O)N[C@@H]3CC[C@@H]3O)cnn12 [I-804] | 9.00 to 9.70 |  |  | Tyk2 JH1% Inhibition @ 10 μM (Tyk2 kinase domain (DH1); compound at 10 μM, ATP 10 μM): A (percent inhibition at 10 μM lower than 50); JAK2 JH1% Inhibition @ 10 μM (JAK2 kinase domain (JH1); compound at 10 μM, ATP 10 μM): A (percent inhibition at 10 μM lower than 50)
COc1ncccc1Nc1cc(NC2CC2)n2ncc(C(=O)N[C@@H]3C[C@@H]3F)c2n1 [I-337, 7-(cyclopropylamino)-N-((1R,2S)-2-fluorocyclopropyl)-5-((2-methoxypyridin-3-yl)amino)pyrazolo[1,5-a]pyrimidine-3-carboxamide] | 9.00 to 9.70 | < 50% | < 50% | 
CNc1cc(-c2cn(CCN3CCCCC3)c3ncccc23)nc2c(C(N)=O)cnn12 [I-797] | > 9.70 | < 50% | < 50% | 
CNc1cc(Nc2cccn([C@@H]3CC[C@H]3O)c2=O)nc2c(C(=O)NC3CC3)cnn12 [I-742] | > 9.70 | < 50% | < 50% | 
CNc1cc(Nc2cc(N3CCCC3)nc(C(F)(F)F)c2)nc2c(C(N)=O)cnn12 [I-112] | 8.00 to 9.00 | < 50% | < 50% | 
